Laboratory results from US20240294531A1, “COVALENT HETEROCYCLES AND USES THEREOF” (Kumquat Biosciences Inc., priority 2022, published 2024).

Columns and labels:
BTK wildtype protein = BTK wildtype protein (Homo sapiens (Human), UniProt Q06187); test: BTK wildtype HTRF displacement assay; assay type: binding; conditions: 1-hour incubation; read-out: BTK (wt) IC50
Outline: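 Tracer-displacement HTRF format: compound and tracer 239 compete at the BTK active site, detected via anti-GST-Tb on GST-tagged full-length enzyme. One-hour room-temperature incubation; compounds dosed at six four-fold steps down from 5 μM. Percent inhibition versus DMSO gives IC50 by constrained four-parameter logistic fit.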

BTK C481S protein = BTK C481S protein (Homo sapiens (Human), UniProt Q06187, C481S); test: BTK C481S HTRF displacement assay; assay type: binding; conditions: 1-hour incubation
Outline: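 Tracer displacement read by HTRF after 1 hour at room temperature: GST-BTK C481S 2-659, 50 nM tracer 239 (Kd 54 nM), anti-GST antibody, compound in six four-fold doses from 5 μM. Percent inhibition versus DMSO fitted (bottom 0, top 100) for IC50, converted to KI via Cheng-Prusoff.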

BTK wildtype protein, sequence (Q06187 2-659): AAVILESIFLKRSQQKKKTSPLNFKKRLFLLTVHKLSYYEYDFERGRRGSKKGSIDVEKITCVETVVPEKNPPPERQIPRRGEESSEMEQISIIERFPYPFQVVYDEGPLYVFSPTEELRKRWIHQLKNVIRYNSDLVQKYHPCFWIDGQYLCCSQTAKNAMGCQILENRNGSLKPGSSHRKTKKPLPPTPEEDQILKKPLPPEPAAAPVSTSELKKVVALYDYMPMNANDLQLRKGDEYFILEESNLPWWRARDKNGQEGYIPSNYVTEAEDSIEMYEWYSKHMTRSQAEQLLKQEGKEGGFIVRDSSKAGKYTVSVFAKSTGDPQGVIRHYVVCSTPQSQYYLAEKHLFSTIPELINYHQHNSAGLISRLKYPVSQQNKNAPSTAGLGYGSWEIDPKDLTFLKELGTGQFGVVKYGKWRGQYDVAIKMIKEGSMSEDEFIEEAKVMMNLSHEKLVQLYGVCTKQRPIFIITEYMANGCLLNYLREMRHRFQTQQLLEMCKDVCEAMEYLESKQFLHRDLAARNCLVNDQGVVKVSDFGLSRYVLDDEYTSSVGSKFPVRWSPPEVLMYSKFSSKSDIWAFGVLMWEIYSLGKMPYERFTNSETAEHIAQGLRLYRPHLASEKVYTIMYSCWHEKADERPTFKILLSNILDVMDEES
BTK C481S protein, sequence (Q06187 2-659 C481S): as the sequence (Q06187 2-659) above, with C480S counted along it

SMILES | IC50 (BTK wildtype protein) [µM] | IC50 (BTK C481S protein) [µM]
COc1ccc(F)cc1C(=O)NCc1ccc(-c2nn(C(C)CC3CCCCN3C(=O)n3cncn3)c3ncnc(N)c23)cc1 (centres unmarked) [Compound 129, N-(4-(1-(1-(1-(1H-1,2,4-triazole-1-carbonyl)piperidin-2-yl)propan-2-yl)-4-amino-1H-pyrazolo[3,4-d]pyrimidin-3-yl)benzyl)-5-fluoro-2-methoxybenzamide] | > 1 | > 1
COc1ccc(F)cc1C(=O)NCc1ccc(-c2nn(Cc3ccccc3N(C)C(=O)n3cncn3)c3ncnc(N)c23)cc1 [Compound 141, N-(2-((4-amino-3-(4-((5-fluoro-2-methoxybenzamido)methyl)phenyl)-1H-pyrazolo[3,4-d]pyrimidin-1-yl)methyl)phenyl)-N-methyl-1H-1,2,4-triazole-1-carboxamide] | ≤ 1 | > 1
COc1ccc(F)cc1C(=O)NCc1ccc(-c2nn(C3CCC3N(C)C(=O)n3cncn3)c3ncnc(N)c23)cc1 (centres unmarked) [Compound 181, N-(2-(4-amino-3-(4-((5-fluoro-2-methoxybenzamido)methyl)phenyl)-1H-pyrazolo[3,4-d]pyrimidin-1-yl)cyclobutyl)-N-methyl-1H-1,2,4-triazole-1-carboxamide] | ≤ 1 | ≤ 1
NC(=O)c1cn(C[C@@H]2CCCCN2C(=O)n2cncn2)nc1-c1ccc(Oc2ccccc2)cc1 [Compound 175, (S)-1-((1-(1H-1,2,4-triazole-1-carbonyl)piperidin-2-yl)methyl)-3-(4-phenoxyphenyl)-1H-pyrazole-4-carboxamide] | > 1 | > 1

Second part, the molecule after the results:

IC50 (BTK wildtype protein) [µM] | IC50 (BTK C481S protein) [µM] | SMILES
≤ 1 | ≤ 1 | COc1ccc(F)cc1C(=O)NCc1ccc(-c2nn(CC3CN(C(=O)n4cncn4)C3)c(N)c2C(N)=O)cc1 [Compound 270, 1-((1-(1H-1,2,4-triazole-1-carbonyl)azetidin-3-yl)methyl)-5-amino-3-(4-((5-fluoro-2-methoxybenzamido)methyl)phenyl)-1H-pyrazole-4-carboxamide]
≤ 1 | ≤ 1 | COc1ccc(F)cc1C(=O)NCc1ccc(-c2nn(CC3CCCC3N(C)C(=O)n3cncn3)c3ncnc(N)c23)cc1 (centres unmarked) [Compound 211, N-(2-((4-amino-3-(4-((5-fluoro-2-methoxybenzamido)methyl)phenyl)-1H-pyrazolo[3,4-d]pyrimidin-1-yl)methyl)cyclopentyl)-N-methyl-1H-1,2,4-triazole-1-carboxamide]
≤ 1 | ≤ 1 | CN(C(=O)n1cncn1)C1CCC(C2CCNc3c(C(N)=O)c(-c4ccc(Oc5ccccc5)cc4)nn32)C1 (centres unmarked) [Compound 183, 7-(3-(N-methyl-1H-1,2,4-triazole-1-carboxamido)cyclopentyl)-2-(4-phenoxyphenyl)-4,5,6,7-tetrahydropyrazolo[1,5-a] pyrimidine-3-carboxamide]
> 1 | > 1 | COc1ccc(F)cc1C(=O)NCc1ccc(-c2nn(C(Cc3ccccc3)CN(C)C(=O)n3cncn3)c3ncnc(N)c23)cc1 (centres unmarked) [Compound 237, N-(2-(4-amino-3-(4-((5-fluoro-2-methoxybenzamido)methyl)phenyl)-1H-pyrazolo[3,4-d]pyrimidin-1-yl)-3-phenylpropyl)-N-methyl-1H-1,2,4-triazole-1-carboxamide]
> 1 | > 1 | CC(C)[C@H](C1CCNc2c(C(N)=O)c(-c3ccc(Oc4ccccc4)cc3)nn21)N(C)C(=O)n1cncn1 (stereo partly drawn) [Compound 242, 7-((R)-2-methyl-1-(N-methyl-1H-1,2,4-triazole-1-carboxamido)propyl)-2-(4-phenoxyphenyl)-4,5,6,7-tetrahydropyrazolo[1,5-a] pyrimidine-3-carboxamide]
> 1 | > 1 | CN(C(=O)n1cncn1)C1CCCN(c2ncnc3[nH]ccc23)C1 (centres unmarked) [Compound 192, N-(1-(7H-pyrrolo[2,3-d]pyrimidin-4-yl)piperidin-3-yl)-N-methyl-1H-1,2,4-triazole-1-carboxamide]
